Experimental data as given in patent US6706747B2, “Conformationally rigid bicyclic and adamantane derivatives useful as α2-adrenergic blocking agents” (Allergan, Inc., priority 1994, dated 2004).

Target: T1, HT-29(α2A) (Homo sapiens, UniProt P08913)
T1 construct: HT-29 and chinese hamster ovary (CHO) cells expressing the human α2A (CHO—C10) receptor; endogenous in cells; host or cells: HT-29
T1 sequence (P08913 1-465): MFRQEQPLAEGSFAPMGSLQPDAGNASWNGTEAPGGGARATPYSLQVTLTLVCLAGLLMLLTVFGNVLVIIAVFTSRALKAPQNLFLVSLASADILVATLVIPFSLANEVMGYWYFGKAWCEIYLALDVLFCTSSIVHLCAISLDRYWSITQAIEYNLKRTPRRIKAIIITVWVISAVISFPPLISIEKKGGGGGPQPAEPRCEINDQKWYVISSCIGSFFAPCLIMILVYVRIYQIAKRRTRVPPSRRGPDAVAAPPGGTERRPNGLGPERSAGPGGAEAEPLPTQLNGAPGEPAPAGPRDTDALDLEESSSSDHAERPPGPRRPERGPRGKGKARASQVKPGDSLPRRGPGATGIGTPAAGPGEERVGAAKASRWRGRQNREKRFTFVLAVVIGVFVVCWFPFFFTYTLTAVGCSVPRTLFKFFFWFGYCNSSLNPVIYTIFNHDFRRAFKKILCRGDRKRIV
Assay: Radioligand binding, [3H]rauwolscine, HT-29 cell membranes
Settings: values marked *: HT-29 cells, 22° C., 30 minutes
Method: Cell preparation: HT-29 and chinese hamster ovary (CHO) cells expressing the human α2A (CHO—C10) receptor and CHO cells (CHO—RNG) expressing the rat α2B adrenoceptor were grown to near confluency in Dulbecco's modified Eagle's medium supplemented with 10% fetal bovine serum using standard cell culture methods. Cells were harvested by scraping and placed into cold buffer of the following composition: 50 mM Tris-HCl, 5 mM EDTA, pH 7.4). Cells were then homogenized with a Polytron homogenizer for 2×10 secs at setting # 7, arid centrifuged for 20 minutes at 49,000×g. The pellet fraction was washed (resuspended in Tris-HCl, pH 8 buffer and centrifuged for 15-20 minutes at 49,000×g) 2 times and stored at −100° C. until binding assay.
Binding studies: The radioligands [^3H]rauwolscine (specific activity 80 Ci/mmol) and [^3H]prazosin (specific activity 76 Ci/mmol) were obtained from New England Nuclear, Boston, Mass. Frozen membrane pellet was resuspended in 25 mM glycine/glycine, pH 7.4 and incubated with radioligand under the following conditions: CHO—C10, CHO—RNG, HT-29-[^3H]rauwolscine, 22° C., 30 minutes; RKC-[^3H]rauwolscine, 0° C., 120 minutes; and, HCC-[^3H]prazosin, 22° C., 30 minutes in a final volume of 500 μl. At the end of the incubation period, the samples were filtered through glass fiber filters (Whatman GF/B) in a 96 well cell harvester and rapidly washed four times with 4 ml of ice-cold 50 mM, Tris-HCl buffer. The filters were then oven dried and transferred to scintillation vials containing 5 ml of Beckman's Ready Protein® scintillation cocktail for counting. Specific binding defined by 10 μM phentolamine for competition studies were as follows: 0.3 nM [^3H]rauwolscine—CHO—C10 99%; 0.4 nM[^3H]rauwolscine —CHO—RNG 99%; 0.7;nM [^3H]rauwolscine—HT-29 90%; 1 nm [^3]rauwolscine—RKC 92%, and 0.3 nM [^3H]prazosin—HCC 87%. Protein concentrations were determined with a protein assay kit from Bio Rad. Binding isotherms, equilibrium dissociation and affinity constants were analyzed and determined by the non-linear least squares curve fitting programs AccuFit Competition/Saturation by Beckman.
Binding studies: The radioligands [^3H]rauwolscine (specific activity 80 Ci/mmol), [^3H]prazosin (specific activity 76 Ci/mmol) and [^3H]brimonidine (UK-14,304; specific activity 63 Ci/mmol) were obtained from New England Nuclear, Boston, Mass. Frozen membrane pellet was resuspended either 50 mM tris, 2 mM EGTA, 1 mM MgCl2, pH7.5 (RbKC, RbICB-[^3H]brimonidine); 50 mM tris, 0.5 mM EDTA, 5 mM NaCl, pH 7.7 (RbICB-[^3H]rauwolscine); 25 mM glycine/glycine, pH 7.4 (RtKC, CHO—C10, CH—RNG, HT-29, HCC) or 50 mM tris, 0.1 mM MnCl2, pH7.7 (RtCC). Membrane protein homogenate (75-200 μg) was incubated with radioligand under the following conditions: RbKC and RbICB-[^3H]rauwolscine, 22° C., 45 minutes; RtCC and RbICB-[^3H]brimondine, 22° C., 90 minutes; CHO—C10, CHO—RNG and HT-29-[^3H]rauwolscine, 22° C., 30 minutes; HCC—[^3H]prazosin, 22° C., 30 minutes; and, in a final volume of 250 or 500 μl. At the end of the incubation period, the samples were filtered through glass fiber filters (Whatman GF/B) in a 24 or 96 well cell harvester and rapidly washed four times with 4 mls of iced-cold 50 mM Tris-HCl buffer. The filters were then oven dried and transferred to scintillation vials containing 10 mls of, Beckman's Ready Protein® scintillation cocktail for counting. […] Protein concentrations were determined with a protein assay kit from Bio Rad. […]

Compound	Ki [nM]
C1CCC(C2C3CCC(C3)C2NC2=NCCN2)CC1 (centres unmarked)	288
CCCCNC1=NCCO1	150

Now those with a lower Ki, led by results:

Ki [nM]	Compound
29	CCCCC1C2CCC(C2)C1NC1=NCCO1 (centres unmarked)
43	CC(C)C1C2CCC(C2)C1NC1=NCCO1 (centres unmarked)
58	CCCCC1C2CCC(C2)C1NC1=NCCS1 (centres unmarked)
